Experimental data as given in US8623860B2, “Azetidine derivatives, pharmaceutical compositions and uses thereof” (Boehringer Ingelheim International GmbH, priority 2011, dated 2014).

These molecules were tested against human ACC2 (Homo sapiens (Human), UniProt O00763) (assay: ACC2 assay, spectrophotometric 384 well assay (NADH-linked, coupled lactate dehydrogenase/pyruvate kinase reaction)). Conditions: hACC2 construct lacking the 128 N-terminal amino acids; 25° C., 340 nm, 15 minutes.
Format: biochemical
Description: Spectrophotometric 384 Well Assay
Malonyl CoA formation by acetyl CoA carboxylases is stoichometrically linked to the consumption of ATP. ACC2 activity is measured in a NADH-linked kinetic method measuring ADP generated during the ACC reaction using a coupled lactate dehydrogenase/pyruvate kinase reaction.
For biological testing, a human ACC2 construct which lacks the 128 amino acids at the N-terminus for increased solubility (nt 385-6966 in Genbank entry AJ575592) is cloned. The protein is then expressed in insect cells using a baculoviral expression system. Protein purification is performed by anion exchange.
All compounds are dissolved in dimethyl sulfoxide (DMSO) to a concentration of 10 mM.
Assay reactions are then carried out in 384-well plates, with hACC2 in an appropriate dilution and at final assay concentrations (f.c.) of 100 mM Tris (pH 7.5), 10 mM trisodium citrate, 25 mM KHCC3, 10 mM MgCl2, 0.5 mg/ml BSA, 3.75 mM reduced L-glutathione, 15 U/ml lactate dehydrogenase, 0.5 mM phosphoenolpyruvate, 15 U/ml pyruvate kinase, compounds at different concentrations at final DMSO concentrations of 1%.
The enzymatic reaction is then started by addition of a mixture of NADH, acetyl Coenzyme A (both 200 μM f.c.) and ATP (500 uM f.c.). The decrease of the optical density (slope S) is then determined at 25° C. at a wavelength of 340 nm over 15 minutes in a spectrophotometric reader.
Each assay microtiter plate contains wells with vehicle instead of compound as controls for the non-inhibited enzyme (100% CTL; ‘HIGH’) and wells without acetyl-CoA as controls for non-specific NADH degradation (0% CTL; ‘LOW’).
The slope S is used for calculation of % CTL=(S(compound)−S(‘LOW’))/(S(‘HIGH’)−S(‘LOW’))*100. Compounds will give values between 100% CTL (no inhibition) and 0% CTL (complete inhibition).
For IC50 value determination, the sample slope in the presence of the test compound after subtraction of the low controls (S(compound)−S(‘LOW’)) are used.
An IC50 value is derived from the compound slopes at different dosages after subtraction of the low controls (S(compound)−S(‘LOW’)) by non-linear regression curve fitting (equation y=(A+((B−A)/(1+((C/x)^D))))).
In the following table the activity expressed as IC50 (μM) of compounds according to the invention is presented wherein the IC50 values are determined in the ACC2 assay as described hereinbefore. The term “Ex.” refers to the example numbers according to the following experimental section.

Chain of human ACC2 (O00763 129-2458): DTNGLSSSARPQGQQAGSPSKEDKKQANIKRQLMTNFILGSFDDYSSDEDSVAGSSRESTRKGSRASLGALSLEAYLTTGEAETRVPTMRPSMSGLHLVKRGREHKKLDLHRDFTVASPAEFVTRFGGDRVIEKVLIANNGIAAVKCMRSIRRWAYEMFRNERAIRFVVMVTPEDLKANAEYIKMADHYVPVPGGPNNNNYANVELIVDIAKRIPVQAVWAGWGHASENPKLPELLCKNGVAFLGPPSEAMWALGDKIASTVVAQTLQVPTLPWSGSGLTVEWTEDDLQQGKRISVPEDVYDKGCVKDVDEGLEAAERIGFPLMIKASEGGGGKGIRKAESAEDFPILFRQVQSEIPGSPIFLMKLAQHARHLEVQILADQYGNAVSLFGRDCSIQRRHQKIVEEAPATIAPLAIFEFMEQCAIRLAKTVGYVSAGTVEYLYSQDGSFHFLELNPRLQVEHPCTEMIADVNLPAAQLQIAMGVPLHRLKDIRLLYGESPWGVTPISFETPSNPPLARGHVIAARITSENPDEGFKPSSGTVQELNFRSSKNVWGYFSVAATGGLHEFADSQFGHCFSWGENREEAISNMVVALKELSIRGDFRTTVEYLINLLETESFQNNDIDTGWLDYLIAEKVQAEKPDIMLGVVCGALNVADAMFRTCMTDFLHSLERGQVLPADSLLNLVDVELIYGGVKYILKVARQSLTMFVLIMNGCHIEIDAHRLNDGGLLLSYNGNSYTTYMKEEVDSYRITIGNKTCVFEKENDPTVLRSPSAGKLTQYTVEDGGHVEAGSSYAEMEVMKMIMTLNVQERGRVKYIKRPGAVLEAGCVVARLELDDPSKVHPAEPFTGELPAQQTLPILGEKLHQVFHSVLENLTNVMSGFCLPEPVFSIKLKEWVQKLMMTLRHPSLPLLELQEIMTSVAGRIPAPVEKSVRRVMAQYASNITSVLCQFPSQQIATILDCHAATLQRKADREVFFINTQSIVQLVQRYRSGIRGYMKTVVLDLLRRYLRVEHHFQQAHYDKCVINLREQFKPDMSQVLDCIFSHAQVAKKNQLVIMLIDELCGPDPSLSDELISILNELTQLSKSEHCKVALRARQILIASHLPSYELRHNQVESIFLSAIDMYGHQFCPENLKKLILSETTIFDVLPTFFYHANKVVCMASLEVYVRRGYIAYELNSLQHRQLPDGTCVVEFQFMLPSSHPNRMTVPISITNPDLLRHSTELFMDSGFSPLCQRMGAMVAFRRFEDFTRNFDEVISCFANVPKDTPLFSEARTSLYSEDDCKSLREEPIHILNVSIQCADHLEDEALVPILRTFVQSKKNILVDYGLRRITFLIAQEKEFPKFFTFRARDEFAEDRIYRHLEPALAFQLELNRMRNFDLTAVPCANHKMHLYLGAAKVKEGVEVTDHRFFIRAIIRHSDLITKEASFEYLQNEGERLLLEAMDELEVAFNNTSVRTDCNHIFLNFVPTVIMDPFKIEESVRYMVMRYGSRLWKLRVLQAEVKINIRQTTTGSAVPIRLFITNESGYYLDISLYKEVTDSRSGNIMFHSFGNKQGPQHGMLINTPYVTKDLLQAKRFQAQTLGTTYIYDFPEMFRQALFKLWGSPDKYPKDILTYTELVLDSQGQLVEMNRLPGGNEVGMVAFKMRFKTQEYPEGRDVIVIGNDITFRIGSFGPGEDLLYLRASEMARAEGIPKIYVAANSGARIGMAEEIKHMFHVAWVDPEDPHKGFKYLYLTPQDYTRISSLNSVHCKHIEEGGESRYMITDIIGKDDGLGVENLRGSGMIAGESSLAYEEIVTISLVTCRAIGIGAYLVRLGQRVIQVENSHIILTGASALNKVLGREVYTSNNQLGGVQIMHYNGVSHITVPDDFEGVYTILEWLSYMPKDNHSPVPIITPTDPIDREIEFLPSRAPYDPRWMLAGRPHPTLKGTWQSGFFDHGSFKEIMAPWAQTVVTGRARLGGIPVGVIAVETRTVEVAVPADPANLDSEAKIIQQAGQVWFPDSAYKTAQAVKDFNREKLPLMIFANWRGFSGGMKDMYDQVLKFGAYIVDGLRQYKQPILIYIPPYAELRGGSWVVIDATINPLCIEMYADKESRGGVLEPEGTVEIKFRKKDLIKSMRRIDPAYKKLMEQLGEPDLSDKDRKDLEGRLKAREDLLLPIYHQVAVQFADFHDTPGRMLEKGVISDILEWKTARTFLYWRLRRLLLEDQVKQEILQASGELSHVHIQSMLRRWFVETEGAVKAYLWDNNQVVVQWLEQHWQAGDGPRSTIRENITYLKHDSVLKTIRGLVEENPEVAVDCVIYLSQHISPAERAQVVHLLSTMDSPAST

Row | SMILES | IC50 [nM]
1 | C=CCC(=O)N[C@@H](C)c1ccc(C2CN(c3ccc(OCC4CC4)cc3)C2)cc1 [Example 3.91] | 630
2 | CC(=O)NC(C)CCc1ccc(C2CN(c3ccc(OC4CC4)cc3)C2)cc1 (centres unmarked) [Example 1.15] | 480
3 | CC(=O)N[C@@H](C)c1ccc(C2CN(c3ncnc(OCC4CC4)c3Cl)C2)cc1 [Example 5.5] | 380
4 | C[C@H](NC(=O)Cc1cncnc1)c1ccc(C2CN(c3ccc(OCC4CC4)cc3)C2)cc1 [Example 3.48] | 1100
5 | C[C@H](NC(=O)CC#N)c1ccc(C2CN(c3ccc(OCC4CC4)cc3)C2)cc1 [Example 3.78] | 1220
6 | CCC(C)Nc1ncc(N2CC(c3ccc(C(C)NC(C)=O)cc3)C2)cn1 (centres unmarked) [Example 1.22] | 2080
7 | CC(=O)NC(C)Cc1ccc(C2CN(c3ccc(-c4ccc(Cl)cc4)nn3)C2)cc1 (centres unmarked) [Example 2.03] | 7020
8 | CC(=O)N[C@@H](C)c1ccc(C2CN(c3ncc(OCC4CC4(F)F)cn3)C2)cc1 (some centres unmarked) [Example 1.33] | 180
9 | C[C@H](NC(=O)Cc1cc[nH]c1)c1ccc(C2CN(c3ccc(OCC4CC4)cc3)C2)cc1 [Example 3.21] | 2960
10 | C[C@H](NC(=O)C1CC(F)C1)c1ccc(C2CN(c3ccc(OCC4CC4)cc3)C2)cc1 (some centres unmarked) [Example 3.37] | 1170
11 | CC(=O)N[C@@H](C)c1ccc(C2CN(c3ccnc(OCC4CC4(F)F)c3F)C2)cc1 (stereo partly drawn) [Example 5.1, N-((1S)-1-(4-(1-(2-((2,2-difluorocyclopropyl)methoxy)-3-fluoropyridin-4-yl)azetidin-3-yl)phenyl)ethyl)acetamide] | 1450

The next lines start with the values.

Row | IC50 [nM] | SMILES
12 | 1220 | CC(=O)N[C@@H](C)c1ccc(C2CN(c3ccnc(OCC(F)F)c3)C2)cc1 [Example 5.2]
13 | 2400 | CC(=O)Nc1cc(C(=O)N[C@@H](C)c2ccc(C3CN(c4ccc5c(c4)OCCO5)C3)cc2)ccn1 [Example 3.69]
14 | 2520 | CC(F)C(=O)N[C@@H](C)c1ccc(C2CN(c3ccc4c(c3)OCCO4)C2)cc1 (some centres unmarked) [Example 3.61]
15 | 250 | CC(=O)Nc1nc(C)c(C(=O)N[C@@H](C)c2ccc(C3CN(c4ccc(OCC5CC5)cc4)C3)cc2)s1 [Example 3.04]
16 | 1520 | C[C@H](NC(=O)c1ccns1)c1ccc(C2CN(c3ccc(OCC4CC4)cc3)C2)cc1 [Example 3.39]
17 | 710 | C[C@H](NC(=O)c1cnco1)c1ccc(C2CN(c3ccc(OCC4CC4)cc3)C2)cc1 [Example 3.52]
18 | 2190 | CC(=O)Nc1cccc(C(=O)N[C@@H](C)c2ccc(C3CN(c4ccc(OCC5CC5)cc4)C3)cc2)c1 [Example 3.36]
19 | 1970 | CC(=O)Nc1nc(C)c(C(=O)N[C@@H](C)c2ccc(C3CN(c4ccc5c(c4)OCCO5)C3)cc2)s1 [Example 3.72]
20 | 1410 | Cc1nc(C(=O)N[C@@H](C)c2ccc(C3CN(c4ccc(OCC5CC5)cc4)C3)cc2)c(C)s1 [Example 3.38]
